Reference: patent US20250115578A1, “AROMATIC FUSED RING NAV1.8 INHIBITOR, AND USE THEREOF” (CHENGDU KANGHONG PHARMACEUTICAL CO., LTD., priority 2022, published 2025)
≈ marks a conversion by molar mass, not a printed value.

Legend:
hNav1.8 = hNav1.8 (Homo sapiens (Human), UniProt Q9Y5Y9); experiment: Manual patch clamp, Method 1 (CHO cell line stably expressing hNav1.8); assay type: cell-based; settings: for inhibition at 0.01 µM: 10 nM; for inhibition at 0.01 µM / inhibition at 0.1 µM: Method 1, CHO-hNav1.8, read-out: Inhibition rate of hNav1.8; for inhibition at 0.1 µM: 100 nM; for IC50: Method 1, CHO-hNav1.8, manual patch clamp, resting state, read-out: IC50 inhibitory activity against hNav1.8
Excerpt: The patch clamp technique is known as the “gold standard” for studying ion channels, and it uses glass microelectrodes to seal the cell membrane to measure the currents of various membrane channel. […] Patch clamp technology can evaluate the inhibition strength of different compounds on different states of Navs by measuring the changes of membrane channel currents after different compounds bind to different states of Navs.
The representative compounds of the present invention used stable CHO or HEK293 cell lines transfected with specific ion channels to measure the effect of the compounds on Nav1.8 currents by manual patch clamp test, to evaluate their inhibition strength.
The assay protocol of manual patch clamp is as follows:
CHO cell lines with stable expression of hNav1.8 were cultured in F12 medium containing 10% fetal bovine serum at a constant temperature of 37° C., and the carbon dioxide concentration was maintained at 5%. The old culture medium was removed and washed once with PBS, then 1 mL 0.25%-Trypsin-EDTA solution was added and incubated at 37° C. for 1 min. When the cells were detached from the bottom of the dish, 5 mL of the complete medium preheated at 37° C. was added, and the aggregated cells were separated by gently blowing with a straw. The cell suspension was transferred into a sterile centrifuge tube and centrifuged at 1000 rpm for 5 min to collect cells. The cells were then inoculated into a cell culture dish with a diameter of 6 cm (2.5×10^5 cells/petri dish, 5 mL medium) for expansion or maintenance.
In order to maintain the electrophysiological activity of the cells, the cell density must be less than 80%.
The cells were separated with 0.25%-Trypsin-EDTA before the assay, and 5×10^3 cells were seeded on a cover slip and cultured in a 24-well plate (final volume: 500 μL) for 18 h. Then the assay was conducted.
The compounds prepared in the examples of the present invention were dissolved in dimethyl sulfoxide (DMSO) and prepared into DMSO stock solution with a concentration of 10 mM for assay. And it was diluted to various concentrations with extracellular solution (140 mM NaCl, 3.5 mM KCl, 1 mM MgCl2, 2 mM CaCl2), 10 mM Glucose, 10 mM HEPES, 1.25 mM NaH2PO4, pH=7.4 regulated by NaOH), and the final concentration of DMSO in each compound sample was 0.10% or less.
A capillary glass pipette (BF150-86-10, Sutter Instruments) was pulled into a recording electrode with a micropipette puller (P97, Sutter Instruments). The micromanipulator (MP285, Sutter Instruments) was manipulated under an inverted microscope (IX71, Olympus) to make the recording electrode contact the cell and negative pressure suction was applied to achieve a GQ seal. Then, rapid capacitance compensation was performed, and negative pressure was continued, cell membrane was broken by suction, and whole cell recording mode was formed. Then the slow capacitance was compensated and the membrane capacitance and series resistance were recorded without leakage compensation. When the whole cell recording current was stabilized, dosing was initiated, and the next concentration was detected after acting 5 minutes of each drug concentration. Multiple cells were independently repeated during the recording period. All electrophysiological assays were performed at room temperature. Specifically, 6 concentrations (measuring IC50) or 2 concentrations (preliminary screening) were set for each compound, and the percentage of inhibition of sodium channels was determined by calculating the relative percentage of peak current generated before and after each concentration compound treated cells, and the IC50 value or percentage of inhibition at a specific concentration was calculated using IGOR pro software.

[1] = Stability assay for human liver microsomes in vitro; assay type: in vitro ADME; settings: 1 μM compound, 0.5 mg/mL liver microsomes, read-out: Human liver microsome stability T1/2
Protocol: • Human liver microsomes, purchased from Corning or Xenotech, stored in a −80° C. refrigerator. • Nicotinamide adenine dinucleotide phosphate (NADPH), Chem-impex international, 00616 • Control compounds: testosterone, diclofenac, propafenone
• Water bath (HH-60, Guohua, Changzhou, China) • Pipette workstation (PP-550DS, Apricot, Covina, USA) • Centrifuge (5810R, Eppendorf, Hamburg, Germany) • Mass Spectrometer (Sciex API 4000, Singapore) • High Performance Liquid Chromatography (LC 20-AD, Shimadzu, Kyoto, Japan) • Sampler (ADDA, Apricot Designs, California, USA)
• Stock solution: 10 mM in DMSO • Working solution concentration preparation: 10 mM stock solution was diluted to 100 μM with 100% acetonitrile (organic phase content: 99% ACN, 1% DMSO)
Two 96-well incubation plates were named T60 incubation plate and NCF60 incubation plate.
445 μL microsomal working solution (liver microsomal protein concentration: 0.56 mg/mL) was added to the T60 and NCF60 incubation plates respectively, then the incubation plates above were placed in a water bath at 37° C. for pre-incubation approximately 10 minutes.
After the pre-incubation finished, 5 μL of the test compound working solution was added to the T60 and NCF60 incubation plates respectively, and mixed well. 50 μL potassium phosphate buffer was added to each well on the NCF60 incubation plate to start the reaction. 180 μL termination solution (acetonitrile solution containing 200 ng/mL tolbutamide and 200 ng/mL labetalol) and 6 uL working solution of NADPH regeneration system were added to the TO termination plate, and 54 μL samples were removed from the T60 incubation plate to the TO termination plate (TO sample generated). The reaction was initiated by adding 44 μL of NADPH regenerating system working solution per well on the T60 incubation plate. Only 54 μL microsomal working solution, 6 uL NADPH regeneration system working solution, and 180 μL termination solution were added to the Blank plate. Therefore, in the samples of the test or control compounds, the final reaction concentration of the compounds, testosterone, diclofenac and propafenone was 1 μM, the concentration of the liver microsomes was 0.5 mg/mL, and the final concentration of DMSO and acetonitrile in the reaction system was 0.01% (v/v) and 0.99% (v/v), respectively.
After incubation for an appropriate time (e.g. 5, 10, 20, 30, and 60 minutes), 180 μL of termination solution (acetonitrile solution containing 200 ng/mL tolbutamide and 200 ng/mL labetalol) was added to the sample hole of each termination plate, respectively. After that, 60 μL sample was removed from the T60 incubation plate to terminate the reaction.
All sample plates were shaken evenly and centrifuged at 3220×g for 20 min. Then 80 μL supernatant was taken from each well and diluted to 240 μL pure water for LC-MS/MS analysis.
All samples were injected for analysis.

[2] = Assay of kinetic solubility; assay type: physicochemical; settings: aqueous buffer, kinetic from dmso stock, pH 3.5 phosphate buffer, 25° C.
Protocol: The stock solutions of the test compound and the standard progesterone were prepared in DMSO at the concentration of 10 mM.
30 μL of stock solutions at 10 mM of the test compounds and standard substance were placed in order into their proper 96-well plate. 970 μL phosphate buffer at the specified pH was added to the proper vial of the sample plate. The assay was performed in duplicate. A stirring stick was added to each vial and the teflon/silicone plug was capped. The sample tray was then placed in the Eppendorf Thermomixer Comfort and shaken at 1100 RPM at 25° C. for 2 hours. After 2 hours, plugs were removed, a big magnet was used to remove the stirring sticks, and samples were transferred from the sample plate to the filter plate. Vacuum pump was used to create negative pressure and filtered the samples. Transferred 5 μL of the filtrate to the new sample plate, then added 5 μL DMSO and 490 μL water/acetonitrile (V/V=1/1) to dilute the solvent. The dilution factor may be adjusted according to the solubility values of the substances to be tested or the strength of its LC-MS signal response.
From the 10 mM DMSO stock solution, 15 μL of that was transferred into the empty plate and 485 μL DMSO was added to prepare a 300 μM standard solution. From the 300 μM standard solution plate, 5 μL of that was transferred to another empty plate and 5 μL phosphate buffer at specified pH and 490 μL water/acetonitrile (V/V=1/1) dilution solvent were added to the standard solution to get a final concentration of 3 μM. The concentration of the standard solution may be adjusted according to the strength of its LC-MS signal response.
The sample plate was placed into the sample tray of the automatic sampler and the samples were evaluated by LC-MS/MS analysis.
All calculations were carried out by Microsoft Excel.
The sample filtrate was analyzed and quantified against a standard of known concentrations using LC-MS spectral peaks to identify and quantify. The solubility values of the control drug and the compounds to be tested were calculated as the following formula: • [Sample]: concentration of the sample • AREASample: peak area of the sample • INJ VOLStd: standard sample injection volume • DFSample: sample dilution factor • [STD]: standard substance concentration • AREAStd: peak area of standard substance • INJ VOLSample: sample injection volume

Chain of hNav1.8 (Q9Y5Y9 whole entry): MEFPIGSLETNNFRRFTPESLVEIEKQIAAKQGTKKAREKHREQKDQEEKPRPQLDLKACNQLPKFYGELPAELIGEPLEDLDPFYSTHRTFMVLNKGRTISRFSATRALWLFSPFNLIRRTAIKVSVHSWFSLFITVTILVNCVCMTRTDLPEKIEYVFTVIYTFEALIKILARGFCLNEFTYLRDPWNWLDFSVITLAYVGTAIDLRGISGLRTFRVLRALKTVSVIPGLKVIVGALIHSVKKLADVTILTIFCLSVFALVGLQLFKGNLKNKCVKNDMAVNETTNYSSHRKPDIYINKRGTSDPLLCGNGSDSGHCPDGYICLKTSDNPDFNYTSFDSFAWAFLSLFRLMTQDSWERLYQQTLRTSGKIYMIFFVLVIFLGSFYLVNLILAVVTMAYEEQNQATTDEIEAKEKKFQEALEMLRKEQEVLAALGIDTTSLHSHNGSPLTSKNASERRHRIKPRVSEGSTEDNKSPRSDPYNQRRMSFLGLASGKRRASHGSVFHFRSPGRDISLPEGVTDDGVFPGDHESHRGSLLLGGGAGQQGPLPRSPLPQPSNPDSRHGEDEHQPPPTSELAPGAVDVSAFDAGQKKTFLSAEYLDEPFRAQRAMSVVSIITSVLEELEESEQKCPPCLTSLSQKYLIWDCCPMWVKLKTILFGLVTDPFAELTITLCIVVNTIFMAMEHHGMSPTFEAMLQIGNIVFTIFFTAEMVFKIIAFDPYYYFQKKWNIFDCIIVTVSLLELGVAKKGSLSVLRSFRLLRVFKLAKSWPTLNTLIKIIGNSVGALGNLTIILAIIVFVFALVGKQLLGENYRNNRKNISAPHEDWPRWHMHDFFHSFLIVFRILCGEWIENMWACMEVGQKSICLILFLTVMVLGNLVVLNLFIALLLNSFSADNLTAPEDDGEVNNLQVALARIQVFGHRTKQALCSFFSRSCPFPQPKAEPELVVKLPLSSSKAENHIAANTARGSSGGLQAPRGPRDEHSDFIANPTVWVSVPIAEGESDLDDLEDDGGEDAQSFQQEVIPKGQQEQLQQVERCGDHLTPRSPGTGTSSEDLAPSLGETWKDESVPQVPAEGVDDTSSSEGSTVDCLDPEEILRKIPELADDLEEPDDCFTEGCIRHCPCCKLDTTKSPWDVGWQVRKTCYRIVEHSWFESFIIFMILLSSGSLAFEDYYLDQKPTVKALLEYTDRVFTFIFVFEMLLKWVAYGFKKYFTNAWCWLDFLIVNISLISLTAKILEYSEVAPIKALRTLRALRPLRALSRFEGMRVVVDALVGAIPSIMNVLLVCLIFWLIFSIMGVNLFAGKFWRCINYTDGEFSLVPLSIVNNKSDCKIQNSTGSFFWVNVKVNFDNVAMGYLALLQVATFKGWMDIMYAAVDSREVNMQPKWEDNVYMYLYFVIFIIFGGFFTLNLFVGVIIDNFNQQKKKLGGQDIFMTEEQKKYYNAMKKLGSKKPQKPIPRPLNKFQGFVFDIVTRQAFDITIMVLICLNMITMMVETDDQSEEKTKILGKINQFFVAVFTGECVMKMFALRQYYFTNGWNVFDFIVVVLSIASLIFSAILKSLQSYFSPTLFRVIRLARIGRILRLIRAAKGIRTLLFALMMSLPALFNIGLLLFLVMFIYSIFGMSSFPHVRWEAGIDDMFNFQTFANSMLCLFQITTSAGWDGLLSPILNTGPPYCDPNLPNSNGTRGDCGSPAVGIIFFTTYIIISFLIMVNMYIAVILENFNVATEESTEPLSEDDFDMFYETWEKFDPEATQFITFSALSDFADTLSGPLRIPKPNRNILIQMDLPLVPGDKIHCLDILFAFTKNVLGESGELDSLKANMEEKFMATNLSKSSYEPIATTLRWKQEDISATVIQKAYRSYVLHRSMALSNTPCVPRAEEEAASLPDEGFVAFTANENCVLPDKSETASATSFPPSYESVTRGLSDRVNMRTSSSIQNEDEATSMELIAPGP

SMILES | inhibition at 0.01 µM (hNav1.8) [%] | inhibition at 0.1 µM (hNav1.8) [%] | half-life at 1 µM [1] [min] | solubility kinetic at 2 h [2] [µM] | IC50 (hNav1.8) [nM]
O=C(Nc1ccc[n+]([O-])c1)c1nc2ccccc2nc1N1CCCC(F)(F)CC1 [Example 01] | 0.36 | 41.8 | > 145 | – | –
O=C(Nc1cc[nH]c(=O)c1)c1nc2ccccc2nc1N1CCCC(F)(F)CC1 [Example 03, 3-(4,4-difluoroazepan-1-yl)-N-(2-carbonyl-1,2-dihydropyridin-4-yl)quinoxaline-2-carboxamide] | 19.7 | 70 | 79.3 | – | –
O=C(Nc1cn[nH]c(=O)c1)c1nc2ccccc2nc1N1CCCC(F)(F)CC1 [Example 04, 3-(4,4-difluoroazepan-1-yl)-N-(6-carbonyl-1,6-dihydropyridazin-4-yl)quinoxaline-2-carboxamide] | 3.33 | 46 | 79.9 | – | –
NC(=O)c1cc(NC(=O)c2nc3ccccc3cc2N2CCCC(F)(F)CC2)ccc1F [Example 11, N-(3-carbamoyl-4-fluorophenyl)-3-(4,4-difluoroazepan-1-yl) quinoline-2-carboxamide] | 15.3 | 72.8 | – | – | –
NC(=O)c1cccc(NC(=O)c2cc3cc(F)c(F)cc3nc2N2CCCC(F)(F)CC2)c1 [Example 12, N-(3-carbamoylphenyl)-2-(4,4-difluoroazepan-1-yl)-6,7-difluoroquinoline-3-carboxamide] | 95.8 | 100 | – | – | –
NS(=O)(=O)c1cccc(NC(=O)c2cc3ccccc3nc2N2CCCC(F)(F)CC2)c1 [Example 13, 2-(4,4-difluoroazepan-1-yl)-N-(3-sulfamoylphenyl)quinoline-3-carboxamide] | 95.6 | 99.7 | – | 3.38 (≈ 1.56 µg/mL) | –
NC(=O)c1cc(NC(=O)c2nc3ccccc3cc2N2CCCC(F)(F)CC2)ccn1 [Example 15, N-(2-carbamoylpyridin-4-yl)-3-(4,4-difluoroazepan-1-yl) quinoline-2-carboxamide] | 15.4 | 49.9 | – | – | –
NS(=O)(=O)c1cc(NC(=O)c2cc3cc(F)c(F)cc3nc2N2CCCC(F)(F)CC2)ccn1 [Example 17, 2-(4,4-difluoroazepan-1-yl)-6,7-difluoro-N-(2-sulfamoylpyridine-4-yl)quinoline-3-carboxamide] | 98.3 | 100 | > 145 | – | 0.095
NC(=O)c1cc(NC(=O)c2cc3cccnc3cc2N2CCCC(F)(F)CC2)ccn1 [Example 18, N-(2-carbamoylpyridin-4-yl)-7-(4,4-difluoroazepan-1-yl)quinoline-6-carboxamide] | -3.14 | 21.5 | – | – | –
NC(=O)c1cc(NC(=O)c2cc3cccnc3cc2N2CCCC(F)(F)CC2)ccc1F [Example 19, N-(3-carbamoyl-4-fluorophenyl)-7-(4,4-difluoroazepan-1-yl)quinoline-6-carboxamide] | 0.44 | 16.6 | – | – | –
NC(=O)c1cc(NC(=O)c2nc3ccc(Cl)cc3cc2N2CCCC(F)(F)CC2)ccn1 [Example 20, N-(2-carbamoylpyridin-4-yl)-6-chloro-3-(4,4-difluoroazepan-1-yl)quinoline-2-carboxamide] | 19.5 | 81.1 | – | – | –
NC(=O)c1cc(NC(=O)c2cc3cc(F)c(F)cc3nc2N2CCCC(F)(F)CC2)ccc1F [Example 21, N-(3-carbamoyl-4-fluorophenyl)-2-(4,4-difluoroazepan-1-yl)-6,7-difluoroquinoline-3-carboxamide] | – | – | 56.6 | – | 0.36
COc1ccc2cc(C(=O)Nc3ccnc(C(N)=O)c3)c(N3CCCC(F)(F)CC3)nc2c1 [Example 22, N-(2-carbamoylpyridin-4-yl)-2-(4,4-difluoroazepan-1-yl)-7-methoxyquinoline-3-carboxamide] | – | 90.7 | – | – | –
CNS(=O)(=O)c1cc(NC(=O)c2cc3cc(F)c(F)cc3nc2N2CCCC(F)(F)CC2)ccn1 [Example 29, 2-(4,4-difluoroazepan-1-yl)-6,7-difluoro-N-(2-(N-methylsulfamoyl)pyridin-4-yl)quinoline-3-carboxamide] | – | 83.7 | – | < 1.56 | –
